Data: US20260335299A1, “SUBSTITUTED OXOISOINDOLINYL PIPERIDINE-2,6-DIONE COMPOUND AS ANTICANCER AGENT” (BRISTOL-MYERS SQUIBB COMPANY, priority 2023, published 2026)
Like-named read-outs stand apart in the source and are kept apart here.

Columns and labels:
IKZF3 Aiolos = IKZF3 Aiolos (Homo sapiens, UniProt Q96SW2+Q9UKT9); experiment: Human CD8+ T Cell Reprogramming (Degradation) Assay (Aiolos); assay type: cell-based; set-up: Cryopreserved healthy donor human peripheral blood mononuclear cells (PBMC); endogenous in cells; host or cells: CD8+ T cells within healthy donor human PBMC; settings: 24 h
Experimental: Cryopreserved healthy donor human peripheral blood mononuclear cells (PBMC) from healthy donors were thawed and seeded at 500,000 cells/well of 96-well round bottom plates in RPMI 1640 media (Gibco) supplemented with 10% FBS, Pen/Strep (Gibco), MEM-NEAA (Gibco), and sodium pyruvate (Gibco). Cells were treated with titrated doses of compound for 24 hours at 37° C., 5% CO2 before analyzing by flow cytometry.
For flow cytometry staining, cells were washed twice with flow cytometry staining buffer (Thermo Fisher) and incubated in Human Tru-stain Fc block (Biolegend) for 10 minutes before adding eFluor780 viability dye (Thermo Fisher) and surface marker antibody cocktail containing LD-eFluor780, CD3-BUV-395, CD4-BUV805, CD8-FITC, and CD25-BV605 for 30 minutes at 4° C. Cells were then fixed and permeabilized by incubation with permeabilization buffer (eBioscience FoxP3 buffer set 00-5523-00) for 30 minutes at 4° C. as per the kit manufacturer's instructions. Cells were washed twice with the Perm/Wash buffer supplied in the kit as per the manufacturer's instructions and incubated overnight at 4° C. with an intracellular antibody cocktail comprised of antibodies specific for the transcription factors (i.e., Foxp3-BV421, HELIOS-PE-Cy7, EOS-PE, IKAROS-PECF594, AIOLOS-AF647). Cells were washed twice with Perm/Wash buffer and resuspended in flow cytometry staining buffer (Thermo Fisher) prior to acquisition. Sample acquisition and analysis was performed using a BD LSRFortessa (BD Biosciences) flow cytometer. Single-stain controls for each fluorochrome were prepared using UltraComp eBead Compensation Beads (Thermo Fisher). Data were analyzed using FlowJo version 10 and GraphPad Prism Software.
Table D-1 lists the maximum observed degradation of the IKZF1 protein and IKZF3 protein as measured in the Human CD8^+ T Cell Reprogramming assay. The results in Table D-1 were rounded to two digits. In the Human CD8^+ T Cell Reprogramming assay, a value of 100% indicated no detectable protein remaining or complete degradation of the protein; and a value of 0% indicated no detectable degradation of the protein by the test compound.

IKZF2 Helios = IKZF2 Helios (Homo sapiens, UniProt Q96SW2+Q9UKS7); experiment: Human Regulatory T Cell Reprogramming Assay (Helios); assay type: cell-based; set-up: Human CD4+ T cells were isolated from fresh healthy leukopaks; endogenous in cells; host or cells: FACS-sorted primary human regulatory T cells from healthy leukopaks
Experimental: Human CD4+ T cells were isolated from fresh healthy leukopaks (Stemcell Technologies) using the RosetteSep Human CD4+ T cell enrichment cocktail (Stemcell Technologies) and Ficoll density gradient centrifugation. Leukopaks were diluted with an equal volume of phosphate-buffered saline (PBS [Gibco]) supplemented with 2% fetal bovine serum (FBS, VWR Lifescience) and incubated with RosetteSep Human CD4^+ T cell enrichment cocktail for 20 minutes before layering on Ficoll-Paque Plus solution (GE Health Care). The cell-rich interface layer was harvested and washed twice with PBS supplemented with 2% FBS. Regulatory T cells were then isolated manually using the EasySep Human CD4^+CD1271WCD25^+ Regulatory T cell isolation kit (Stemcell Technologies) according to the manufacturer's instructions. Cells were rested overnight in Roswell Park Memorial Institute (RPMI) 1640 media (Gibco) supplemented with 10% FBS, Pen/Strep (Gibco), MEM-NEAA (Gibco), and sodium pyruvate (Gibco) in a humidified incubator (37° C., 5% CO2). Cells were then stained for CD4 (clone: RPA-T4, Biolegend), CD25 (clone: 2A3, BD Biosciences), and CD127 (clone: hIL-7R-M21, BD Biosciences). CD4+CD12710WCD25+ cells were sorted on a BD FACS Aria Fusion sorter to a purity of 95% or greater. Sorted cells were immediately used or cryopreserved for downstream assays.
Fresh or cryopreserved FACS-sorted CD4+CD127^lowCD25^+ Treg cells were cultured at 25,000-50,000 cells/well of 96-well round bottom plates in RPMI 1640 media (Gibco) supplemented with 10% FBS, Pen/Strep (Gibco), MEM-NEAA (Gibco), and sodium pyruvate (Gibco). Cells were stimulated with Treg Xpander beads (Thermo Fisher) at cells-to-beads ratio of 1:4 in the presence of 500 U/mL recombinant human IL-2 (Proleukin). Compounds were added at titrated doses and cells were incubated at 37° C., 5% CO2 for 12-13 days. Recombinant human IL-2 and compound were replenished every 2-3 days during the entire culture duration. On day 12 or 13, cells were restimulated with phorbol 12-myristate 13-acetate (PMA) and ionomycin in the presence of the protein transport inhibitors brefeldin A and monensin (eBioscience Cell Stimulation Cocktail plus protein transport inhibitors, 500×, Catalog number 00-4975-93) before proceeding with flow cytometry staining and analysis.
For flow cytometry staining, cells were washed twice with flow cytometry staining buffer (Thermo Fisher) and incubated in Human Tru-stain Fc block (Biolegend) for 10 minutes before adding eFluor780 viability dye (Thermo Fisher) and surface marker antibody cocktail for 30 minutes at 4° C. […] Data were analyzed using FlowJo version 10 and GraphPad Prism Software.
Table C-1 lists the maximum observed degradation of the IKZF2 protein and IKZF4 protein as measured in the Human Regulatory T Cell Reprogramming assay. […]

Sequence of IKZF3 Aiolos (Q9UKT9 whole entry): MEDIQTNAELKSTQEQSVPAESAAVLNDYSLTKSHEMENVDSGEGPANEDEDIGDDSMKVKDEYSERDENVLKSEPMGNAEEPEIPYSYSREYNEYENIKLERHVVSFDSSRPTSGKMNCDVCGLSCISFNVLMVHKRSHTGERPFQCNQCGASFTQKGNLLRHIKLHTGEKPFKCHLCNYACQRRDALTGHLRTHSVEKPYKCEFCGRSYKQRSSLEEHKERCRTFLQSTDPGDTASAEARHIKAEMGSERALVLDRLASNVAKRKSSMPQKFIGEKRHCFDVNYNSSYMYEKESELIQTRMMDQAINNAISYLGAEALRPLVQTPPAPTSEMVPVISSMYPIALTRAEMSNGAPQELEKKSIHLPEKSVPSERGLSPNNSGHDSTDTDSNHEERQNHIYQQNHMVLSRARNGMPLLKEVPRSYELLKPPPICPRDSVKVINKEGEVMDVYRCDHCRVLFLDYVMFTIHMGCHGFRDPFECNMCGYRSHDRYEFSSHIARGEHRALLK
Sequence of IKZF3 Aiolos (Q96SW2 whole entry): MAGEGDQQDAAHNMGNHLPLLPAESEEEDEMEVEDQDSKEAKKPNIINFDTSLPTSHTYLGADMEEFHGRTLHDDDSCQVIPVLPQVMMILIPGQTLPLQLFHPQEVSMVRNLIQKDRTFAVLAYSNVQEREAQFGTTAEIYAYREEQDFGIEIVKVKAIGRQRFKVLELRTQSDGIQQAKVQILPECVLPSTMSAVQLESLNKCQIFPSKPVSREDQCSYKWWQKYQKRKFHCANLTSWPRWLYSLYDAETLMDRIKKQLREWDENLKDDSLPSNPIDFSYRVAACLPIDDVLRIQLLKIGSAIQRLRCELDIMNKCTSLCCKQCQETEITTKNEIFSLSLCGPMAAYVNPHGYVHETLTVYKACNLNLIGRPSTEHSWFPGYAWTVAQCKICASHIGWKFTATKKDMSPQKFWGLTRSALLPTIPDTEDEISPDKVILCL
Sequence of IKZF3 Aiolos (Q16531 whole entry partner): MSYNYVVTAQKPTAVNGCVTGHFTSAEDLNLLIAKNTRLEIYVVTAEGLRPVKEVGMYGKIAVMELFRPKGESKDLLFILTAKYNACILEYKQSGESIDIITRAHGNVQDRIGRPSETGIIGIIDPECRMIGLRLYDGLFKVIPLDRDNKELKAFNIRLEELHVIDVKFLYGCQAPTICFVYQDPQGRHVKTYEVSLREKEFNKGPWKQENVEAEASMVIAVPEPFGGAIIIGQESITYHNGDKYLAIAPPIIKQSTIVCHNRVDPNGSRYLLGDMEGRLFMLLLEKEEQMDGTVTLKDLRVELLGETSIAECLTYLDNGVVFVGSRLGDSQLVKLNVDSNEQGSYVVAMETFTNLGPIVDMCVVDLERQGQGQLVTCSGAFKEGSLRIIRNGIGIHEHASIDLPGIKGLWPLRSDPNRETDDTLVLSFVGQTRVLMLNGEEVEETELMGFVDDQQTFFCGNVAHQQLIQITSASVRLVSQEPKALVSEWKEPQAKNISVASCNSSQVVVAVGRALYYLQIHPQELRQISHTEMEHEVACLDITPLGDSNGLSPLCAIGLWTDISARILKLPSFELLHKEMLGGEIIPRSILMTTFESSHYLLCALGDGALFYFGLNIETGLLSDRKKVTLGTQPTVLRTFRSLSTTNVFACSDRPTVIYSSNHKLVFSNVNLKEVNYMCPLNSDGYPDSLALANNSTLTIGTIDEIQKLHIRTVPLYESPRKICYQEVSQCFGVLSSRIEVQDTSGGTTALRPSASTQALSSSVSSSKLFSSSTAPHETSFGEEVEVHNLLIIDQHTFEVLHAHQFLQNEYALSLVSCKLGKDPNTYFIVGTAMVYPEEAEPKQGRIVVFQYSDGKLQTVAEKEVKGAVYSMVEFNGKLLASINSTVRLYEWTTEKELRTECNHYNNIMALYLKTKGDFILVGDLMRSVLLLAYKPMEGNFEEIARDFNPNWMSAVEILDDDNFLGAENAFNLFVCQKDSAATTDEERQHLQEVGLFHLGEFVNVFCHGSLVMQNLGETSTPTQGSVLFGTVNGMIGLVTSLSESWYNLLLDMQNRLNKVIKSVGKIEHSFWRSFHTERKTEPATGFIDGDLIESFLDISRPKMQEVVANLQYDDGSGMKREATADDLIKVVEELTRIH
Sequence of IKZF2 Helios (Q9UKS7 whole entry): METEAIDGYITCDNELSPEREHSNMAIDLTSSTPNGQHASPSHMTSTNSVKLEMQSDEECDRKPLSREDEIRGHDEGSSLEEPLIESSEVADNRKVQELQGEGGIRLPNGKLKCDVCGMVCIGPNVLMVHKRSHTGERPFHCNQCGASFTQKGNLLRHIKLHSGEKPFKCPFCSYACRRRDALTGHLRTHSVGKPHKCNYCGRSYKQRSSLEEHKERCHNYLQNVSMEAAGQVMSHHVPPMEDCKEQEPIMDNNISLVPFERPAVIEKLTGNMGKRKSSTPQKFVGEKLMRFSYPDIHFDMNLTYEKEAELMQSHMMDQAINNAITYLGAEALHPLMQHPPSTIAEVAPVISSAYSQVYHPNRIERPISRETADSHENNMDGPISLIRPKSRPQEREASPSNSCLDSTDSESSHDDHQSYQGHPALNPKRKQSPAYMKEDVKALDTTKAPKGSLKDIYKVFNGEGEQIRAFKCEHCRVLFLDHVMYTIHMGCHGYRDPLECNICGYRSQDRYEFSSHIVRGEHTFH
Sequence of IKZF2 Helios (Q96SW2 whole entry): as the sequence (Q96SW2 whole entry) above
Sequence of IKZF2 Helios (Q16531 whole entry partner): as the sequence (Q16531 whole entry partner) above

Question: For `Nc1nc(-c2ccc3c(c2F)CN(C2CCC(=O)NC2=O)C3=O)ccc1CN1CC(C2CCC(F)(F)CC2)C1` (centres unmarked) [Example 1, 3-(5-(6-Amino-5-((3-(4,4-difluorocyclohexyl)azetidin-1-yl)methyl)pyridin-2-yl)-4-fluoro-1-oxoisoindolin-2-yl) piperidine-2,6-dione], which Dmax (IKZF3 Aiolos; summary table, Human CD8+ T Cell Reprogramming Assay (Table D-1), read-out: IKZF3 Aiolos max % deg. observed (Table E)) is on record?
Answer: Its Dmax is 80 to 84%.

Question: And the DC50 (IKZF3 Aiolos; CD8+ T cells, human PBMC, concentration reducing protein level by 50% compared to DMSO alone)?
Answer: Its DC50 is 33 to 36 nM.

Question: And the Dmax (IKZF3 Aiolos; CD8+ T cells, human PBMC, read-out: IKZF3 Aiolos Maximum Observed Degradation)?
Answer: Its Dmax is 80 to 84%.

Question: What about the Dmax (IKZF3 Aiolos; human, text summary of Table D-1, read-out: decreased the level of IKZF3 (Aiolos)) of the same molecule?
Answer: The Dmax was at least 80%.

Question: And the Dmax (IKZF2 Helios; Regulatory T cell, human, text summary of Table C-1, read-out: decreased the level of the IKZF2 (Helios) protein)?
Answer: Its Dmax is at least 81%.

Question: And the Dmax (IKZF2 Helios; Regulatory T cell, human Treg cells, stimulated, 12-13 days, read-out: IKZF2 Helios Maximum Observed Degradation)?
Answer: Its Dmax is 81 to 86%.

Question: What about the DC50 (IKZF2 Helios; human Treg cells, stimulated, 12-13 days, concentration reducing protein level by 50% compared to DMSO alone) of the same molecule?
Answer: The DC50 was 36 to 172 nM.

Question: What about the Dmax (IKZF2 Helios; summary table, Human T Regulatory Cell Reprogramming Assay (Table C-1), read-out: IKZF2 Helios max % deg. observed (Table E)) of the same molecule?
Answer: The Dmax was 81 to 86%.
